Laboratory results: patent publication US12552800B2, “Compounds for diagnosis” (AC IMMUNE SA, priority 2020, dated 2026)

Tests used:
[1] = molecular target: T1, PD brain-derived a-syn aggregates (Homo sapiens, UniProt P37840); experiment: Micro-radiobinding competition assay against [^3H]-a-syn-Ref; format: binding; conditions: for Competition at 1 μM (%): over [^3H]-a-syn-Ref at 20 nM, example compound at 1 μM
T1 construct: from tissue; host or cells: human PD donor brain, sarkosyl-insoluble 100,000 x g pellet
Method: The procedure was adapted from the protocol described in Spillantini et al., 1998. Frozen tissue blocks from PD donors were thawed on ice and homogenized using a glass dounce homogenizer. The homogenate was then centrifuged at 11,000×g (12,700 RPM) in an ultracentrifuge (Beckman, XL100K) for 20 minutes at 4° C. using a pre-cooled 70.1 rotor (Beckman, 342184). Pellets were resuspended in extraction buffer [10 mM Tris-HCl pH 7.4, 10% sucrose, […], 1% protease inhibitor (Calbiochem 539131), 1 mM EGTA, 1% phosphatase inhibitor (Sigma P5726 and P0044)] and centrifuged at 15,000×g (14,800 RPM, a 70.1 Ti rotor) for 20 minutes at 4° C. Pellets were discarded and sarkosyl (20% stock solution, Sigma L7414) was added to the supernatants to a final concentration of 1% at room temperature for one hour. This solution was then centrifuged at 100,000×g (38,000 RPM, 70.1 Ti rotor) for one hour at 4° C. Pellets containing enriched a-syn aggregates were resuspended in PBS and stored at −80° C. until use.
PD brain-derived a-syn aggregates were spotted onto microarray slides. The slides were incubated with the tritiated reference ligand, [^3H]-a-syn-Ref (as described in WO2017/153601) at 20 nM and the example compounds of this invention (non-radiolabelled) either at 1 μM or at increasing concentrations in the range of 50 pM to 2 μM. After incubation, slides were washed and exposed to a phosphor storage screen (GE healthcare, BAS-IP TR 2025). Following exposure, phosphor storage screens were scanned with a laser imaging system (Typhoon FLA 7000) to readout the signal from the radiobinding experiments described above. Quantification of the signal was performed using the ImageJ software package. […] All measurements were performed with at least two technical replicates.
Example compounds were assessed for their potency to compete with the binding of [3H] radiolabelled reference ligand to PD patient brain-derived a-syn aggregates. Results of the micro-radiobinding competition assay for the example compounds tested are shown in Table 5 as: % competition at 1 μM and Ki value. All measurements were performed on the same PD brain-derived a-syn aggregates.

[2] = molecular target: T1, PD brain-derived a-syn aggregates; experiment: Micro-radiobinding competition assay against Example-1 [^3H-1] (Table 8); format: binding; conditions: human PD brain-derived a-syn aggregates
Method in brief: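 Human PD brain-derived α-syn aggregates on microarray slides were co-incubated with 6 nM or 20 nM tritiated radioligand and unlabelled compound at 1 μM and 100 nM, some over 0.05 nM–2 μM. Bound signal read by real-time autoradiography; values are % competition, at least two technical replicates, mean of independent experiments.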

[3] = molecular target: T1, PD brain-derived a-syn aggregates; experiment: as above; format: binding; conditions: competition over Example-1 [^3H-1]
[4] = PK study in a healthy monkey by PET; format: in vivo, Non-Human Primate (NHP); conditions: iv, 6.5 mCi
Method: Non-Human Primate (NHP) was injected intravenously (iv) with the ^18F-labelled Example-1 [^18F-1] (6.5 mCi) using 1 mL ethanol and 14 mL ascorbate/saline (ascorbate solution was prepared at a concentration of 9.3 mg/mL). Monkey PET scans were performed using a Siemens Focus 220. PET acquisition started immediately before the radioactive dose was injected. Images were generated as dynamic scans for 120 minutes with head focused.

[5] = molecular target: T2, Abeta pathological aggregates (Homo sapiens, UniProt P05067); experiment: Radiobinding competition assay against [^3H]-Abeta-Ref on AD brain homogenates (example compound 1); format: binding
T2 construct: Abeta pathological aggregates present in the human AD brain homogenates; from tissue; host or cells: human AD donor brain, Triton/sucrose-insoluble 100,000 x g pellet
Method: The procedure was adapted from the protocol described in Bagchi et al., 2013. Frozen tissue blocks from AD donors were thawed on ice and homogenized in high salt buffer (50 mM Tris-HCl pH 7.5, 0.75M NaCl, 5 mM EDTA) supplemented with protease inhibitors (Complete; Roche 11697498001) at 4° C. using a glass Dounce homogenizer. The homogenate was centrifuged at 100,000×g (38,000 RPM) in an ultracentrifuge (Beckman, XL100K) for one hour at 4° C. using a pre-cooled 70.1 rotor (Beckman, 342184). Pellets were resuspended in high salt buffer supplemented with 1% Triton X-100 and homogenized at 4° C. using a glass Dounce homogenizer. The homogenates were centrifuged again at 100,000×g (38,000 RPM, 70.1 rotor) for one hour at 4° C. Pellets were resuspended in high salt buffer supplemented with 1% Triton X-100 and 1 M sucrose and homogenized at 4° C. using a glass Dounce homogenizer. The homogenates were centrifuged at 100,000×g (38,000 RPM, 70.1 rotor) for one hour at 4° C. […]
A fixed concentration of AD insoluble fraction was incubated with a tritiated reference Abeta ligand ([^3H]-Abeta-Ref) at 10 nM and increasing concentrations of non-radiolabelled example compound 1 in the range of […] to 2 μM for two hours at RT. […] The filters were analyzed on a Microbeta2 scintillation counter (PerkinElmer). […]

T2 sequence (P05067 672-713 limits assumed): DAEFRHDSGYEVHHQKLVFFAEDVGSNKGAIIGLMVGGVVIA

Structure (SMILES)	Competition at 1 μM (%) [1] [%]	Competition at 100 nM (%) ([2]; 100 nM non-radiolabelled example compound vs Example-1 [^3H-1] ligand)	Competition at 1 μM (%) ([2]; 1 μM non-radiolabelled example compound vs Example-1 [^3H-1] ligand)	Ki [3] [nM]	SUVmax whole brain [4]	time of uptake post injection ([4]; whole brain) [min]	washout, peak to half peak ([4]; whole brain) [min]	Ki ([1]; displacement of [^3H]-a-syn-Ref, average of two independent experiments) [nM]	binding to PD brain-derived a-syn aggregates ([1]; in words)	Ki ([5]; displacement of [^3H]-Abeta-Ref at 10 nM, AD brain-derived homogenates) [nM]	selectivity for a-syn over Abeta pathological aggregates ([5]; in words)
O=C1c2cn(-c3ccc(N4CC[C@@H](F)C4)nc3)nc2CN1c1ccncc1 [Example 2]	68	72	98	7	–	–	–	–	–	–	–
O=C1c2cn(-c3ccc(N4CC[C@@H]([18F])C4)nc3)nc2CN1c1cccnc1 [Example-1 [^18F-1]]	–	–	–	–	2.0	3.5	14	–	–	–	–
O=C1c2cn(-c3ccc(N4CC[C@@H](F)C4)nc3)nc2CN1c1cccnc1 [Example 1]	94	–	–	–	–	–	–	30	good binding	330	good selectivity for a-syn over Abeta
